For one data set, the target named is T1, human TLR8 (Homo sapiens, UniProt Q9NR97).
T1 construct: host or cells: HEK293 (HEK-Blue)
T1 sequence (Q9NR97 27-1041): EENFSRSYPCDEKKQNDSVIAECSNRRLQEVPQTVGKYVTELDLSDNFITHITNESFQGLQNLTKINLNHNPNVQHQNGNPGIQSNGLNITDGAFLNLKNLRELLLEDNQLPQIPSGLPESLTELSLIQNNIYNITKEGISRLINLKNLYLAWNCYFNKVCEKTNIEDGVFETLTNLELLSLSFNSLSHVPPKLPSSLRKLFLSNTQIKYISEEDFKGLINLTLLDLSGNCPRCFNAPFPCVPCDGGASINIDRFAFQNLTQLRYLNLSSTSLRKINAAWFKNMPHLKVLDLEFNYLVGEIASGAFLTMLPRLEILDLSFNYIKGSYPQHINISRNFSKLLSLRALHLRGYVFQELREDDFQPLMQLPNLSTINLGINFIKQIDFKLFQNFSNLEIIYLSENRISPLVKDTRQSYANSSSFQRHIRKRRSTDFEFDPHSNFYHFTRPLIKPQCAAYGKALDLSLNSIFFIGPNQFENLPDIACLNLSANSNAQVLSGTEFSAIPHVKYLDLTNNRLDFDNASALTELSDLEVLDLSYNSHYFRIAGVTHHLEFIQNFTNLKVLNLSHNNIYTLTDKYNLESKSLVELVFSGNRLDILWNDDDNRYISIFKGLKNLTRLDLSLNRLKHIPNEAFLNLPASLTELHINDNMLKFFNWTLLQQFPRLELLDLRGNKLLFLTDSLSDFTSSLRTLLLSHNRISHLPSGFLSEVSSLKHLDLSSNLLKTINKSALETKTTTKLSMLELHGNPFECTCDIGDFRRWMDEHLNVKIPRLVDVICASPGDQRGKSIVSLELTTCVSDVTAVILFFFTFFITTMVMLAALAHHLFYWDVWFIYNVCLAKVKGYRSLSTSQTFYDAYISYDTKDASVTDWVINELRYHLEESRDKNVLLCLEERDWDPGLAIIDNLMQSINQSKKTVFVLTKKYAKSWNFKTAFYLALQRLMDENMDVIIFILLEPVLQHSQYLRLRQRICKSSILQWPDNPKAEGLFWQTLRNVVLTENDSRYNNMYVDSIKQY
Briefly: HEK293-Blue-hTLR-8 cells assay (SEAP reporter, R848 stimulation). The data set is classed as cell-based. As to conditions: HEK293-Blue-hTLR8 cells, R848, 20 hrs; read-out: HEK/hTLR8 IC50. The gist of the method: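 HEK293-Blue-hTLR8 cells (NF-κB/AP-1-driven SEAP) in DMEM/10% FBS were treated with serially diluted compound (1% DMSO final) plus R848 for 20 hrs at 37 °C. Supernatant SEAP was measured with QUANTI-Blue after 2 hrs at 37 °C, absorbance 620-655 nm; antagonism seen as reduced reporter.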

The target in another data set is T2, hERG channel (Homo sapiens, UniProt Q12809).
T2 construct: expressed in transfected cells; host or cells: CHO (Chinese hamster ovary)
Briefly: hERG channel inhibition assay (patch-clamp, CHO hERG cells). The class given is cell-based. As to conditions: for IC50 / IC20: CHO hERG cells, whole-cell patch-clamp; for IC20: human, CHO cells stably expressing hERG; for hERG IC20 / TLR8 IC50 / hERG IC20 / TLR7 IC50 / hERG IC20 / TLR9 IC50: safety ratio; for hERG IC20 / TLR7 IC50: TLR7 IC50 of ER compounds from Table 1; for hERG IC20 / TLR9 IC50: TLR9 IC50 of ER compounds from Table 1. How it is done: The hERG K^+ channels were cloned in humans and stably expressed in a CHO (Chinese hamster ovary) cell line. CHOhERG cells were used for patch-clamp (voltage-clamp, whole-cell) experiments. Cells were stimulated by a voltage pattern to activate hERG channels and conduct IKhERG currents (rapid delayed outward rectifier potassium current of the hERG channel). After the cells were stabilized for a few minutes, the amplitude and kinetics of IKhERG were recorded at a stimulation frequency of 0.1 Hz (6 bpm). Thereafter, the test compound was added to the preparation at increasing concentrations. For each concentration, an attempt was made to reach a steady-state effect, usually, this was achieved within 3-10 min at which time the next highest concentration was applied. The amplitude and kinetics of IKhERG are recorded in each concentration of the drug which were compared to the control values (taken as 100%). (references: Redfern WS, Carlsson L, Davis AS, Lynch WG, MacKenzie I, Palethorpe S, Siegl PK, Strang I, Sullivan AT, Wallis R, Camm AJ, Hammond TG. 2003; Relationships between preclinical cardiac electrophysiology, clinical QT interval prolongation and torsade de pointes for a broad range of drugs: evidence for a provisional safety margin in drug development. Cardiovasc. Res. 58:32-45, Sanguinetti MC, Tristani-Firouzi M. 2006; hERG potassium channels and cardiac arrhythmia. Nature 440:463-469, Webster R, Leishman D, Walker D. 2002; Towards a drug concentration effect relationship for QT prolongation and torsades de pointes. Curr. Opin. Drug Discov. Devel. 5:116-26).
Table 3. hERG and safety ratio results

In general, IC20 refers to the concentration at which the effect reaches the 20% level. Low readings indicate an effect from little substance, high ones a need for much substance.

T2 sequence (Q12809 whole entry): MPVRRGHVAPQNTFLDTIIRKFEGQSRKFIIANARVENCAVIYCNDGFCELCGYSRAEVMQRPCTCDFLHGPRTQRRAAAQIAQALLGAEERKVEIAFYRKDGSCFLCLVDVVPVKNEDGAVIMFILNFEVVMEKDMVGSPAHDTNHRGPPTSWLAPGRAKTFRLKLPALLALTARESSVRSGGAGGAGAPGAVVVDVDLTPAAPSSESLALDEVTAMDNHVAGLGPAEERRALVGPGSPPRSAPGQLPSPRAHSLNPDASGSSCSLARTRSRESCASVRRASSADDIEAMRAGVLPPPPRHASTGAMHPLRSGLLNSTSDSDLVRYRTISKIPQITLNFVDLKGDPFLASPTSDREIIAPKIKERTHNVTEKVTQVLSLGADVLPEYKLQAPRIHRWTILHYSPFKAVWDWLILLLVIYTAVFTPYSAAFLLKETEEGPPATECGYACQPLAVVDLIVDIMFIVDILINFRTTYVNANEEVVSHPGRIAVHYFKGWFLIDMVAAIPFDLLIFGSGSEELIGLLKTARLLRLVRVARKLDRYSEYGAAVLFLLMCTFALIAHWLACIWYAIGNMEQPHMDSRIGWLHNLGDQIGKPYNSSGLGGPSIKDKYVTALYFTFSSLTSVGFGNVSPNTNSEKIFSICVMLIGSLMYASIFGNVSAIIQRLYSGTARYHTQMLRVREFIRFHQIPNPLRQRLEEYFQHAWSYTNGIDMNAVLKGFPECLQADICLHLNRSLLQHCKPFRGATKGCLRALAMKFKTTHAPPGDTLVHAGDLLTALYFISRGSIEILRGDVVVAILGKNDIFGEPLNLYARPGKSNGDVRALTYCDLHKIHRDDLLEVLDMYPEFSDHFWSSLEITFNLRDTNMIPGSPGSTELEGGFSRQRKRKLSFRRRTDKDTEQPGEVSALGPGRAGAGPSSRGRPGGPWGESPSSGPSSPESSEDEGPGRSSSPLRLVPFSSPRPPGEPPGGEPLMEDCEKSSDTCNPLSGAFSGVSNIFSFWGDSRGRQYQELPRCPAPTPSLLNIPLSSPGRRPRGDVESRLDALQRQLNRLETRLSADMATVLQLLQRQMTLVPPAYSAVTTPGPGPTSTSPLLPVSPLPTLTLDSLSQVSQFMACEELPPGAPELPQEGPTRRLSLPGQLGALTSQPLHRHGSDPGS

Consider `C[C@@H]1CN(c2ccc(C#N)c3ncccc23)C[C@H](CN2CCN(c3cnc4c(c3)CNCC4)CC2)O1` [Example 21, 5-[(2R,6S)-2-methyl-6-[[4-(5,6,7,8-tetrahydro-1,6-naphthyridin-3-yl)piperazin-1-yl]methyl]morpholin-4-yl]quinoline-8-carbonitrile], for which the IC50 on human TLR8 turned out to be 9 nM. Besides, on hERG channel, the IC50 was over 20000 nM, the IC20 is over 10000 nM, the “hERG IC20 / TLR8 IC50” value was over 1098.9 and the “hERG IC20 / TLR7 IC50” value was over 900.9. Also, at hERG channel, the “hERG IC20 / TLR9 IC50” value is over 193.8.

For the molecule `C[C@@H]1CN(c2ccc(C#N)c3ncccc23)C[C@H](CN2CCN(c3ccc4c(n3)CNCC4)CC2)O1` [Example 69, 5-[(2R,6S)-2-methyl-6-[[4-(5,6,7,8-tetrahydro-1,7-naphthyridin-2-yl)piperazin-1-yl]methyl]morpholin-4-yl]quinoline-8-carbonitrile], the IC50 at human TLR8 was 5 nM. For the same molecule, on hERG channel, the IC50 is over 20000 nM, the IC20 turned out to be 8650 nM, the “hERG IC20 / TLR8 IC50” value is recorded as 1879.8 and the “hERG IC20 / TLR7 IC50” value came out at 697.4. For the same molecule, the “hERG IC20 / TLR9 IC50” value at hERG channel was found to be 104.3.

With `CC1NCc2ncc(N3CCN(C[C@H]4CN(c5ccc(C#N)c6ncccc56)C[C@@H](C)O4)CC3)cc21` (stereo partly drawn) [Example 41, 5-[(2R,6S)-2-methyl-6-[[4-(5-methyl-6,7-dihydro-5H-pyrrolo[3,4-b]pyridin-3-yl)piperazin-1-yl]methyl]morpholin-4-yl]quinoline-8-carbonitrile], the IC50 at human TLR8 stood at 17 nM. Further, on hERG channel, the IC50 was over 20000 nM, the IC20 was over 10000 nM, the “hERG IC20 / TLR8 IC50” value is reported as over 574.7 and the “hERG IC20 / TLR7 IC50” value is given as over 354.6. For the same molecule, at hERG channel, the “hERG IC20 / TLR9 IC50” value is over 166.7.

Turning to `COc1ccc(N2CCN(C[C@H]3CN(c4ccc(C#N)c5ncccc45)C[C@@H](C)O3)CC2)cc1` [Example R1, 5-[(2S,6R)-2-[[4-(4-methoxyphenyl)piperazin-1-yl]methyl]-6-methyl-morpholin-4-yl]quinoline-8-carbonitrile, reference compound], the IC50 at human TLR8 was found to be 142 nM. At hERG channel, the IC50 stood at 2740 nM, the 20% effect level (IC20) was put at 879 nM, the “hERG IC20 / TLR8 IC50” value amounted to 6.2 and the “hERG IC20 / TLR7 IC50” value amounted to 9.3. In addition, the “hERG IC20 / TLR9 IC50” value at hERG channel was found to be 0.1.

For `C[C@@H]1CN(c2ccc(C#N)c3ncsc23)C[C@H](CN2CCN(c3cnc4c(c3)CNC4)CC2)O1` [Example 8, 7-[(2S,6R)-2-[[4-(6,7-dihydro-5H-pyrrolo[3,4-b]pyridin-3-yl)piperazin-1-yl]methyl]-6-methyl-morpholin-4-yl]-1,3-benzothiazole-4-carbonitrile], the IC50 on human TLR8 was under 3 nM. In addition, at hERG channel, the IC50 was over 20000 nM, the IC20 is over 10000 nM, the “hERG IC20 / TLR8 IC50” value was over 3333.3 and the “hERG IC20 / TLR7 IC50” value is given as over 1020.4. Besides, the “hERG IC20 / TLR9 IC50” value at hERG channel is listed as over 207.5.

Consider `C[C@@H]1CN(c2ccc(C#N)c3ncccc23)C[C@H](CN2CCN(c3ccc(Cl)cc3)CC2)O1` [Example R2, 5-[(2S,6R)-2-[[4-(4-chlorophenyl)piperazin-1-yl]methyl]-6-methyl-morpholin-4-yl]quinoline-8-carbonitrile, reference compound], for which the IC50 at human TLR8 was 342 nM. Besides, on hERG channel, the IC50 turned out to be 770 nM, the IC20 was 280 nM, the “hERG IC20 / TLR8 IC50” value was found to be 0.8 and the “hERG IC20 / TLR7 IC50” value was 1.3. In addition, the “hERG IC20 / TLR9 IC50” value on hERG channel was 0.04.

Consider `C[C@@H]1CN(c2ccc(C#N)c3ncccc23)C[C@H](CN2CC3(C2)CN(c2cnc4c(n2)CCNC4)CCO3)O1` [Example 50, 5-[(2R,6S)-2-methyl-6-[[8-(5,6,7,8-tetrahydropyrido[3,4-b]pyrazin-2-yl)-5-oxa-2,8-diazaspiro [3.5]nonan-2-yl]methyl]morpholin-4-yl] quinoline-8-carbonitrile], for which the IC50 at human TLR8 is under 3 nM. At hERG channel, the IC50 is over 20000 nM, the IC20 is over 10000 nM, the “hERG IC20 / TLR8 IC50” value is on record as over 3125.0 and the “hERG IC20 / TLR7 IC50” value was over 2702.7. Moreover, the “hERG IC20 / TLR9 IC50” value on hERG channel is over 144.9.

Take `C[C@@H]1CN(c2ccc(C#N)c3ncccc23)C[C@H](CN2CCN(c3ccc4c(c3)C(O)CNC4)CC2)O1` (stereo partly drawn) [Example 22, 5-[(2S,6R)-2-[[4-(4-hydroxy-1,2,3,4-tetrahydroisoquinolin-6-yl)piperazin-1-yl]methyl]-6-methyl-morpholin-4-yl]quinoline-8-carbonitrile]: at human TLR8, the IC50 came to 19 nM. Moreover, on hERG channel, the IC50 is over 20000 nM, the IC20 is over 10000 nM, the “hERG IC20 / TLR8 IC50” value is reported as over 520.8 and the “hERG IC20 / TLR7 IC50” value is on record as over 259.7. Also, the “hERG IC20 / TLR9 IC50” value on hERG channel is over 222.7.

`C[C@@H]1CN(c2ccc(C#N)c3ncccc23)C[C@H](CN2CCN(c3cc4c(cn3)CCN[C@@H]4C)CC2)O1` (single isomer, unassigned) [Example 74]: at human TLR8, the IC50 amounted to 4 nM. Moreover, at hERG channel, the IC50 was over 20000 nM, the IC20 is over 10000 nM, the “hERG IC20 / TLR8 IC50” value was over 2857.1 and the “hERG IC20 / TLR7 IC50” value was over 1470.6. The “hERG IC20 / TLR9 IC50” value on hERG channel is over 112.1.

In the case of `C[C@@H]1CN(c2ccc(C#N)c3ncccc23)C[C@H](CN2CCN(c3cc4c(cn3)CNCC4)CC2)O1` [Example 19, 5-[(2R,6S)-2-methyl-6-[[4-(5,6,7,8-tetrahydro-2,7-naphthyridin-3-yl)piperazin-1-yl]methyl]morpholin-4-yl]quinoline-8-carbonitrile], at human TLR8, the IC50 was 4 nM. Also, on hERG channel, the IC50 is over 20000 nM, the IC20 was over 10000 nM, the “hERG IC20 / TLR8 IC50” value is given as over 2283.1 and the “hERG IC20 / TLR7 IC50” value was over 1118.6. Also, the “hERG IC20 / TLR9 IC50” value at hERG channel is on record as over 158.3.

Regarding `C[C@@H]1Cc2cc(N3CCN(C[C@H]4CN(c5ccc(C#N)c6ncccc56)C[C@@H](C)O4)CC3)ncc2CN1` (single isomer, unassigned) [Example 70], the IC50 at human TLR8 was determined as 4 nM. Besides, on hERG channel, the IC50 was over 20000 nM, the IC20 is over 10000 nM, the “hERG IC20 / TLR8 IC50” value was over 2439.0 and the “hERG IC20 / TLR7 IC50” value is given as over 390.6. The “hERG IC20 / TLR9 IC50” value on hERG channel is over 120.91.

For `C[C@@H]1CN(c2ccc(C#N)c3ncccc23)C[C@H](CN2CCN(c3ccc4c(c3)CCNC4)CC2)O1` [Example 5, 5-[(2R,6S)-2-methyl-6-[[4-(1,2,3,4-tetrahydroisoquinolin-6-yl)piperazin-1-yl]methyl]morpholin-4-yl]quinoline-8-carbonitrile], on human TLR8, the IC50 was 20 nM. Further, on hERG channel, the IC50 was over 20000 nM, the IC20 was over 10000 nM, the “hERG IC20 / TLR8 IC50” value is on record as over 497.5 and the “hERG IC20 / TLR7 IC50” value is reported as over 320.5. In addition, the “hERG IC20 / TLR9 IC50” value on hERG channel was over 156.0.

These data come from patent EP3807270B1, “NOVEL HETEROARYL HETEROCYCLYL COMPOUNDS FOR THE TREATMENT OF AUTOIMMUNE DISEASE” (F. Hoffmann-La Roche AG, priority 2018, dated 2019).
